Legend:
[1] = Solubility of the compound in water by HPLC analysis; assay type: physicochemical
[2] = Solubility of the compound in PBS buffer at pH 7; assay type: physicochemical

## O=S(=O)(O)O.S=C(NCc1ccc2c(c1)OCO2)N1CCN(c2ncnc3c2oc2ccccc23)CC1
[1]
  solubility: 3.3 µg/mL
[2]
  solubility: 1.7 µg/mL

## Cc1ccc(S(=O)(=O)O)cc1.S=C(NCc1ccc2c(c1)OCO2)N1CCN(c2ncnc3c2oc2ccccc23)CC1
[1]
  solubility: 1.87 µg/mL

## O=S(=O)(O)c1ccccc1.S=C(NCc1ccc2c(c1)OCO2)N1CCN(c2ncnc3c2oc2ccccc23)CC1
[1]
  solubility: 4.26 µg/mL

## CS(=O)(=O)O.S=C(NCc1ccc2c(c1)OCO2)N1CCN(c2ncnc3c2oc2ccccc23)CC1
[1]
  solubility: 5.96 µg/mL
[2]
  solubility: 2.16 µg/mL

— ChEMBL document CHEMBL3991943, “Pharmaceutical formulations comprising salts of a protein kinase inhibitor and methods of using same” (2013)
